What was measured:
Assay type in all cases: cell-based
[1] = target: T1, STAT3 (Homo sapiens, UniProt P40763); assay: STAT3 reporter gene assay (luciferase), LNCaP stable cell line (pSTAT3-TA-luc), IL-6 stimulation
T1 construct: plasmid pSTAT3-TA-luc), which contains a stably operating STAT3 promoter; endogenous in cells
Method in brief: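 LNCaP cells stably carrying pSTAT3-TA-luc, in RPMI1640 with 3% DCC-FBS, were treated with compound and then stimulated with 10 ng/mL IL-6 for 24–48 h at 37 °C. Luciferase activity was measured in lysates. A parallel plate measured viability by CellTiter-Glo, with stimulated 0.1% DMSO wells as the positive control.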

[2] = tested on: MDA-MB-231; assay: Cell growth inhibition assay, breast cancer cell line MDA-MB-231; settings: Homo sapiens; MDA-MB-231 breast cancer cell line, 5,000 cells/well
Method: The inhibitory effects of the compounds of the present invention against the growth of cancer cells were evaluated as shown below. The cancer cell lines including stomach cancer cell line (AGS), breast cancer cell lines (MDA-MB-231, MDA-MB-468, and BT-549), prostate cancer cell lines (LNCaP and DU-145), colon cancer cell line (HCT116), ovarian cancer cell line (SW626), liver cancer cell line (Hep3B), kidney cancer cell line (ACHN), lung cancer cell line (NCI-H23) and blood cancer cell lines (HEL92.1.7 and U266) were cultured under the protocol provided by each supplier. A medium supplemented with 10 ng/mL of IL-6 was used for LNCaP, a prostate cancer cell line, when treated with a drug. Each type of cells to be used in experiments were sub-cultured in a 96-well plate by counting the exact number of cells using Tali™ Image-based Cytometer (Life Technologies). In a 96-well plate, AGS, HCT116, and DU-145 were employed with 3,000 cells/well; NCI-H23, SW626, Hep3B, ACHN, BT-549, MDA-MB-231, HEL92.1.7, and U266 were employed with 5,000 cells/well; and LNCaP and MDA-MB-468 were employed with 10,000 cells/well. The cells were treated with the compounds listed in Examples which were diluted in various concentrations. Upon completion of the compounds treatment, AGS, HCT116, SW626, DU145, NCI-H23, Hep3B, ACHN, BT-549, LNCaP, HEL92.1.7, and U266 cells were cultured at 37° C. under 5% CO2 for from 72 to 96 hours, and MDA-MB-231 and MDA-MB-468 cells were cultured at 37° C. in air for from 72 to 96 hours. Subsequently, the cells were observed under microscope and drug precipitation and particular findings were investigated and recorded. And then, the 96-well plate was placed at room temperature for 30 minutes, added with 20 μL/well of CellTiter-Glo solution (Cat No. G7573, Promega) and shaken for 10 minutes, followed by being subjected to the measurement using PHERAstar™ microplate reader (BMG LABTECH) according to the supplier's general luminometer protocol. Wells where only culture liquid added without cell plating were used as a negative control, whereas wells where culture liquid containing 0.1% DMSO instead of the compounds listed in Examples were used as a positive control.

[3] = tested on: LNCaP; assay: Cell growth inhibition assay, prostate cancer cell line LNCaP (medium with 10 ng/mL IL-6); settings: Homo sapiens, medium supplemented with 10 ng/mL of IL-6, 10,000 cells/well

T1 sequence (P40763 whole entry): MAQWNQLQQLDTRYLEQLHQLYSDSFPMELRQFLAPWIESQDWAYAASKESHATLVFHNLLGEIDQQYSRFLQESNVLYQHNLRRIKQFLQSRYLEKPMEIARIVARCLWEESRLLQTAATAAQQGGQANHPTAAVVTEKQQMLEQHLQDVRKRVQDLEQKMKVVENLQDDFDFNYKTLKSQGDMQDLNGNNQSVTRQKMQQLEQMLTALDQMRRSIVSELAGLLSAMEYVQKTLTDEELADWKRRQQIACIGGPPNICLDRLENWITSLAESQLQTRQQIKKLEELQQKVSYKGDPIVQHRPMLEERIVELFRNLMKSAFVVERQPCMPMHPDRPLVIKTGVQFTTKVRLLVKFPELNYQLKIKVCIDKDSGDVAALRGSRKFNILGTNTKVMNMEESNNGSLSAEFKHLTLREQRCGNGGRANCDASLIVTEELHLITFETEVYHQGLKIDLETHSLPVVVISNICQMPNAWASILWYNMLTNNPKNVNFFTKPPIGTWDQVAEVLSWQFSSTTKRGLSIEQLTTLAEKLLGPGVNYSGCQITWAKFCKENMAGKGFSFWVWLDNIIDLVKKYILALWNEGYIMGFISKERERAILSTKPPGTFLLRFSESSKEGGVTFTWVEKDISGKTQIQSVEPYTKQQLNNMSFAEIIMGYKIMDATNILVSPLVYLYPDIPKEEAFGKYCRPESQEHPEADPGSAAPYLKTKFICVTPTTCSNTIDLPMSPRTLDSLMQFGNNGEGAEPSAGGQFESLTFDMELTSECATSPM

IC50 [1] | IC50 [2] | IC50 [3] | Structure (SMILES)
0.8 µM | 0.39 µM | 3.2 µM | CS(=O)(=O)Nc1ccc2cc(C(=O)Nc3cc(Br)cc(-c4ccc(F)cc4F)c3)sc2c1 [Example 310, N-(5-bromo-2′,4′-difluoro-[1,1′-biphenyl]-3-yl)-6-(methylsulfonamido)benzo[b]thiophene-2-carboxamide]
0.82 µM | 2.4 µM | 7.6 µM | CS(=O)(=O)Nc1ccc2cc(C(=O)Nc3cc(-c4ccc[nH]4)cc(-c4ccc(F)cc4F)c3)[nH]c2c1 [Example 352, N-(2′,4′-difluoro-5-(1H-pyrrol-2-yl)-[1,1′-biphenyl]-3-yl)-6-(methylsulfonamido)-1H-indole-2-carboxamide]
0.16 µM | 0.081 µM | 0.54 µM | CCC(CC)(c1cc(NC(=O)c2cc3ccc(NS(C)(=O)=O)cc3[nH]2)cc(OC)c1)c1cc(OC)cc(OC(F)(F)F)c1 [Example 55, N-(3-methoxy-5-(3-(3-methoxy-5-(trifluoromethoxy)phenyl)pentan-3-yl)phenyl)-6-(methylsulfonamido)-1H-indole-2-carboxamide]
0.082 µM | 0.029 µM | 0.13 µM | CC(C)(c1cc(Br)cc(NC(=O)c2cc3cc(NS(C)(=O)=O)ccc3s2)c1)c1cccc(OC(F)F)c1 [Example 46, N-(3-bromo-5-(2-(3-(difluoromethoxy)phenyl)propan-2-yl)phenyl)-5-(methylsulfonamido)benzo[b]thiophene-2-carboxamide]
> 10 µM | > 10 µM | > 10 µM | CS(=O)(=O)Nc1ccc2cc(C(=O)Nc3cccc(S(=O)(=O)c4cc(O)cc(C#N)c4)c3)[nH]c2c1 [Example 417, N-(3-((3-cyano-5-hydroxyphenyl)sulfonyl)phenyl)-6-(methylsulfonamido)-1H-indole-2-carboxamide]
4 µM | 5.3 µM | > 10 µM | CS(=O)(=O)c1ccc2cc(C(=O)Nc3cc(Br)cc(-c4ccc(F)cc4F)c3)[nH]c2c1 [Example 304, N-(5-bromo-2′,4′-difluoro-[1,1′-biphenyl]-3-yl)-6-(methylsulfonyl)-1H-indole-2-carboxamide]
0.13 µM | 0.062 µM | 0.55 µM | CC(C)(c1ccc(F)cc1)c1cc(Br)cc(NC(=O)c2cc3ccc(NS(C)(=O)=O)cc3[nH]2)c1 [Example 14, N-(3-bromo-5-(2-(4-fluorophenyl)propan-2-yl)phenyl)-6-(methylsulfonamido)-1H-indole-2-carboxamide]
6.8 µM | 8.4 µM | > 10 µM | CS(=O)(=O)Nc1ccc2cc(C(=O)Nc3cccc(S(=O)(=O)c4cccc(N)c4)c3)[nH]c2c1 [Example 415, N-(3-((3-aminophenyl)sulfonyl)phenyl)-6-(methylsulfonamido)-1H-indole-2-carboxamide]
0.76 µM | 0.54 µM | 2.1 µM | CS(=O)(=O)Nc1ccc2cc(C(=O)Nc3cccc(C4(c5ccccc5)CC4)c3)[nH]c2c1 [Example 422, 6-(methylsulfonamido)-N-(3-(1-phenylcyclopropyl)phenyl)-1H-indole-2-carboxamide]
8.1 µM | > 10 µM | > 10 µM | CNC(=O)c1cc(NC(=O)c2cc3ccc(NS(C)(=O)=O)cc3[nH]2)cc(-c2ccc(F)cc2F)c1 [Example 318, N-(2′,4′-difluoro-5-(methylcarbamoyl)-[1,1′-biphenyl]-3-yl)-6-(methylsulfonamido)-1H-indole-2-carboxamide]
0.12 µM | 0.018 µM | 0.87 µM | CC(C)(c1cccc(NC(=O)c2cc3ccc(NS(C)(=O)=O)cc3[nH]2)c1)c1cccc(OC(F)(F)F)c1 [Example 8, 6-(methylsulfonamido)-N-(3-(2-(3-(trifluoromethoxy)phenyl)propan-2-yl)phenyl)-1H-indole-2-carboxamide]
0.55 µM | 0.62 µM | 3.5 µM | Cc1c(C(=O)Nc2cccc(C(C)(C)c3ccc(F)cc3)c2)sc2cc(NS(C)(=O)=O)ccc12 [Example 51, N-(3-(2-(4-fluorophenyl)propan-2-yl)phenyl)-3-methyl-6-(methylsulfonamido)benzo[b]thiophene-2-carboxamide]
6.8 µM | > 10 µM | 8.6 µM | COc1cc(NS(C)(=O)=O)cc2cc(C(=O)Nc3cccc(-c4ccc(F)cc4F)c3)oc12 [Example 112, N-(2′,4′-difluoro-[1,1′-biphenyl]-3-yl)-7-methoxy-5-(methylsulfonamido)benzofuran-2-carboxamide]
4.3 µM | 3.3 µM | > 10 µM | CC(C)(c1ccc(F)cc1)c1cccc(NC(=O)c2sc3cc(NS(C)(=O)=O)ccc3c2Cl)c1 [Example 110, 3-chloro-N-(3-(2-(4-fluorophenyl)propan-2-yl)phenyl)-6-(methylsulfonamido)benzo[b]thiophene-2-carboxamide]
0.15 µM | 0.1 µM | 0.5 µM | CS(=O)(=O)Nc1ccc2sc(C(=O)Nc3cccc(C4(c5ccc(F)cc5)CC4)c3)cc2c1 [Example 424, N-(3-(1-(4-fluorophenyl)cyclopropyl)phenyl)-5-(methylsulfonamido)benzo[b]thiophene-2-carboxamide]
> 10 µM | 1.8 µM | > 10 µM | CS(=O)(=O)Nc1ccc2cc(C(=O)Nc3cc(-c4cncnc4)cc(-c4ccc(F)cc4F)c3)[nH]c2c1 [Example 360, N-(2′,4′-difluoro-5-(pyrimidin-5-yl)-[1,1′-biphenyl]-3-yl)-6-(methylsulfonamido)-1H-indole-2-carboxamide]
0.43 µM | 0.18 µM | 1.7 µM | COc1cc(OC(F)(F)F)cc(C(C)c2cccc(NC(=O)c3cc4ccc(NS(C)(=O)=O)cc4[nH]3)c2)c1 (stereo not drawn) [Example 10, N-(3-(1-(3-methoxy-5-(trifluoromethoxy)phenyl)ethyl)phenyl)-6-(methylsulfonamido)-1H-indole-2-carboxamide]
0.046 µM | 0.016 µM | 0.39 µM | CC(C)(c1cccc(NC(=O)c2cc3cc(NS(C)(=O)=O)ccc3s2)c1)c1cccc(OC(F)(F)F)c1 [Example 37, 5-(methylsulfonamido)-N-(3-(2-(3-(trifluoromethoxy)phenyl)propan-2-yl)phenyl)benzo[b]thiophene-2-carboxamide]
0.026 µM | 0.022 µM | 0.07 µM | CCC(CC)(c1ccc(F)cc1)c1cc(Br)cc(NC(=O)c2cc3cc(NS(C)(=O)=O)ccc3s2)c1 [Example 53, N-(3-bromo-5-(3-(4-fluorophenyl)pentan-3-yl)phenyl)-5-(methylsulfonamido)benzo[b]thiophene-2-carboxamide]
0.53 µM | 0.47 µM | 3.8 µM | CC(C)(c1cccc(NC(=O)c2cc3cc(NS(C)(=O)=O)ccc3o2)c1)c1ccc(F)cc1F [Example 29, N-(3-(2-(2,4-difluorophenyl)propan-2-yl)phenyl)-5-(methylsulfonamido)benzofuran-2-carboxamide]
0.048 µM | 0.05 µM | 0.22 µM | CC(C)(c1ccc(F)cc1)c1cc(NC(=O)c2cc3cc(NS(C)(=O)=O)ccc3s2)cc(OC(F)F)c1 [Example 39, N-(3-(difluoromethoxy)-5-(2-(4-fluorophenyl)propan-2-yl)phenyl)-5-(methylsulfonamido)benzo[b]thiophene-2-carboxamide]
